Measurements reported in patent US11739101B2, “Bifunctional degraders of hematopoietic progenitor kinase and therapeutic uses thereof” (Nurix Therapeutics, Inc., priority 2020, dated 2023).

biological target: T1, HPK1 (Homo sapiens, UniProt Q92918); test: HPK1 Cellular HiBiT Degradation Assay; assay type: cell-based; conditions: HiBiT-tagged HPK1 Jurkat cells, 24 hours, 10 uM to 0.1 nM; Dmax = 100 minus lowest % HPK1 remaining vs DMSO vehicle
T1 construct: A HiBiT tag was introduced by CRISPR on the N terminus of HPK1 in Jurkat cells; host or cells: Jurkat (ATCC TIB-152), monoclonal CRISPR HiBiT knock-in line
T1 sequence (Q92918 whole entry): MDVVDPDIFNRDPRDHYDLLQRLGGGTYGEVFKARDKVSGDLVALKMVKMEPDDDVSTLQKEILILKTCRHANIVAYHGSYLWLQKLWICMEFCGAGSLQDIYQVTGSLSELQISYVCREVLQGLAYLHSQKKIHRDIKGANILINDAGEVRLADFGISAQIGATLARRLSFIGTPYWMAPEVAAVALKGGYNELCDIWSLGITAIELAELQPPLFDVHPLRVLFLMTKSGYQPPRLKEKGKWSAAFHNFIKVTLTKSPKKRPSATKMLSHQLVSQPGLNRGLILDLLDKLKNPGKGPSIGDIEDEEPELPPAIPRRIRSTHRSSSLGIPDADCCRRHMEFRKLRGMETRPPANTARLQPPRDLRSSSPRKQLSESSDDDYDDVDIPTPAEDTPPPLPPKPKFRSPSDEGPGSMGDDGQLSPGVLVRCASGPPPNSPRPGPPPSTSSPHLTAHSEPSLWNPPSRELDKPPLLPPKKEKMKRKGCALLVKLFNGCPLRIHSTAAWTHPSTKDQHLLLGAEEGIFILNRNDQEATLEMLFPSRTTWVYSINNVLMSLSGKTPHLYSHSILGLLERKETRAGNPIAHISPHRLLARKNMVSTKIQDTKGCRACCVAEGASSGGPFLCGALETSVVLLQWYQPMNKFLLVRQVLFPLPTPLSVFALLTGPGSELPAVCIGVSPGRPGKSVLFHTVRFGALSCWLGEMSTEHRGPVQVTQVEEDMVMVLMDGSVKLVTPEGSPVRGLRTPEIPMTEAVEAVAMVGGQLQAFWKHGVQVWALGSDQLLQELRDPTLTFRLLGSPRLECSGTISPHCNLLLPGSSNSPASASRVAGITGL
Method: HiBiT HPK1 Jurkat cell lines were used to evaluate the total protein levels of HPK1 in a robust human cellular high throughput format. The level of HPK1 remaining following treatment with HPK1 CTMs is reported as Dmax (maximum degradation) achieved at 24 hours when compared to vehicle treated controls. […] These decreases were not a result of cytotoxicity measured by a parallel viability assessment (CTG). See also Table 1.
A HiBiT tag was introduced by CRISPR on the N terminus of HPK1 in Jurkat cells (ATCC® TIB-152) to allow quantitation of HPK1 protein levels in a monoclonal human cell line. Cells were plated at 1×10^6 cells/mL, 30 uL/well (3×10^4 cells/well) in complete RPMI 1640 (10% heat inactivated FBS, 1% L-glutamine) in 384-well assay plates (Corning, cat. no. 3570). HPK1 chimeric targeting molecules (CTMs) were added in an 11-point dilution series (3.16-fold) with a final assay concentration range of 10 uM to 0.1 nM. The parental Jurkat cell line, with no HiBiT insertion, was included in the assay as a background control. Cells treated with a DMSO vehicle control were used to determine the maximum signal defining 100% HPK1 in the cell. Cells were incubated for 24 hours at 37° C./5% CO2. Following incubation, 30 uL of complete Nano-Glo HiBiT Lytic Detection Reagent (Promega cat. no. N3040) was added. Cells were incubated for 10 minutes at room temperature and luminescence was read on an EnVision plate reader (Perkin Elmer, 0.1 sec per well). Parallel plates were assessed for viability using Cell Titer Glo (Promega) and read on an EnVision plate reader to ensure results were not the effect of cytotoxicity. Percent HPK1 remaining per sample was calculated as follows: […]
% HPK1 remaining values were plotted as a function of compound concentration and curves were fit using the Prism (GraphPad) equation “log(inhibitor) vs response−Variable slope (four parameters)”. Dmax values were calculated by identifying the lowest % remaining and subtracting from 100. Dmax values are provided in Table 1, wherein A>65%, 45%≤B≤65% and C<45%.

| SMILES | Dmax [%] | Cellular HPK1 HiBiT: Dmax (%) |
| --- | --- | --- |
| CC(=O)N1CCC2(CC1)C(=O)N([C@H]1C[C@@H](N3CCC[C@@H](C(=O)NCCCCCCCOc4cc(-c5scnc5C)ccc4CNC(=O)[C@@H]4C[C@@H](O)CN4C(=O)[C@@H](NC(=O)C4(F)CC4)C(C)(C)C)C3)C1)c1cc(-c3cc4ncn(C(C)C)c4c(Nc4cc(C(=O)NC(C)C)c(C)cc4F)n3)ccc12 [Example 16, (R)-1-((1s,3s)-3-(1′-acetyl-6-(4-((2-fluoro-5-(isopropylcarbamoyl)-4-methylphenyl)amino)-3-isopropyl-3H-imidazo[4,5-c]pyridin-6-yl)-2-oxospiro[indoline-3,4′-piperidin]-1-yl)cyclobutyl)-N-(7-(2-(((2S,4R)-1-((S)-2-(1-fluorocyclopropane-1-carboxamido)-3,3-dimethylbutanoyl)-4-hydroxypyrrolidine-2-carboxamido)methyl)-5-(4-methylthiazol-5-yl)phenoxy)heptyl)piperidine-3-carboxamide] | < 45 | – |
| Cc1cc(F)c(Nc2nc(-c3ccc4c(c3)N(C3CC(N5CCCCC5)C3)C(=O)C43CCN(C(=O)C4CCN(C(=O)C5CCN(c6ccc7c(c6)C(=O)N(C6CCC(=O)NC6=O)C7=O)CC5)CC4)CC3)cc3ncn(C(C)C)c23)cc1C(=O)NC(C)C (stereo not shown) [Example 41, 5-[(6-{1′-[1-(1-{2-[2,6-dioxopiperidin-3-yl]-1,3-dioxo-2,3-dihydro-1H-isoindol-5-yl}piperidine-4-carbonyl)piperidine-4-carbonyl]-2-oxo-1-[(1s,3s)-3-(piperidin-1-yl)cyclobutyl]-1,2-dihydrospiro[indole-3,4′-piperidin]-6-yl}-3-(propan-2-yl)-3H-imidazo[4,5-c]pyridin-4-yl)amino]-4-fluoro-2-methyl-N-(propan-2-yl)benzamide] | – | B (45%≤B≤65%) |
| Cc1cc(F)c(Nc2nc(-c3ccc4c(c3)N([C@H]3C[C@@H](N5CCCCC5)C3)C(=O)C43CCN(C(=O)CCOCCOCCOCCOc4cc(-c5scnc5C)ccc4CNC(=O)[C@H]4C[C@H](O)CN4C(=O)[C@H](NC(=O)C4(F)CC4)C(C)(C)C)CC3)cc3ncn(C(C)C)c23)cc1C(=O)NC(C)C [Example 9, (2S,4R)—N-(2-(2-(2-(2-(3-(6-(4-((2-fluoro-5-(isopropylcarbamoyl)-4-methylphenyl)amino)-3-isopropyl-3H-imidazo[4,5-c]pyridin-6-yl)-2-oxo-1-((1s,3s)-3-(piperidin-1-yl)cyclobutyl)spiro[indoline-3,4′-piperidin]-1′-yl)-3-oxopropoxy)ethoxy)ethoxy)ethoxy)-4-(4-methylthiazol-5-yl)benzyl)-1-((S)-2-(1-Fluorocyclopropane-1-carboxamido)-3,3-dimethylbutanoyl)-4-hydroxypyrrolidine-2-carboxamide] | < 45 | – |
| Cc1cc(F)c(Nc2nc(-c3ccc4c(c3)N(C3CC(N5CCCCC5)C3)C(=O)C43CCN(C(=O)c4ccc(C(=O)N(C)C5CCC(Nc6cccc7c6C(=O)N(C6CCC(=O)NC6=O)C7=O)CC5)cc4)CC3)cc3ncn(C(C)C)c23)cc1C(=O)NC(C)C [Example 61, 4-fluoro-2-methyl-5-({6-[1′-(4-{methyl[(1R,4R)-4-{[2-(2,6-dioxopiperidin-3-yl)-1,3-dioxo-2,3-dihydro-1H-isoindol-4-yl]amino}cyclohexyl]carbamoyl}benzoyl)-2-oxo-1-[(1s,3s)-3-(piperidin-1-yl)cyclobutyl]-1,2-dihydrospiro[indole-3,4′-piperidin]-6-yl]-3-(propan-2-yl)-3H-imidazo[4,5-c]pyridin-4-yl}amino)-N-(propan-2-yl)benzamide] | – | A (A>65%) |
| Cc1cc(F)c(Nc2nc(-c3ccc4c(c3)N([C@H]3C[C@@H](N5CCCCC5)C3)C(=O)C43CCN(C(=O)c4ccc(CN5CCN(c6ccc7c(c6)C(=O)N(C6CCC(=O)NC6=O)C7=O)CC5)cc4)CC3)cc3ncn(C(C)C)c23)cc1C(=O)NC(C)C (stereo partly shown) [Example 91, 5-[(6-{1′-[4-({4-[2-(2,6-dioxopiperidin-3-yl)-1,3-dioxoisoindol-5-yl]piperazin-1-yl}methyl)benzoyl]-2-oxo-1-[(1s,3s)-3-(piperidin-1-yl)cyclobutyl]spiro[indole-3,4′-piperidin]-6-yl}-3-isopropylimidazo[4,5-c]pyridin-4-yl)amino]-4-fluoro-N-isopropyl-2-methylbenzamide] | 45 to 65 | – |

Continued, in another order:

| Dmax [%] | SMILES | Cellular HPK1 HiBiT: Dmax (%) |
| --- | --- | --- |
| 45 to 65 | Cc1cc(F)c(Nc2nc(-c3ccc4c(c3)N([C@H]3C[C@@H](N5CCCCC5)C3)C(=O)C43CCN(C(=O)[C@@H]4CCN(C(=O)c5cnc(N6CCN(c7cccc8c7C(=O)N(C7CCC(=O)NC7=O)C8=O)CC6)cn5)C4)CC3)cc3ncn(C(C)C)c23)cc1C(=O)NC(C)C (stereo partly drawn) [Example 86, 5-((6-(1′-((3R)-1-(5-(4-(2-(2,6-dioxopiperidin-3-yl)-1,3-dioxoisoindolin-4-yl)piperazin-1-yl)pyrazine-2-carbonyl)pyrrolidine-3-carbonyl)-2-oxo-1-((1s,3s)-3-(piperidin-1-yl)cyclobutyl)spiro[indoline-3,4′-piperidin]-6-yl)-3-isopropyl-3H-imidazo[4,5-c]pyridin-4-yl)amino)-4-fluoro-N-isopropyl-2-methylbenzamide] | – |
| < 45 | Cc1cc(F)c(Nc2nc(-c3ccc4c(c3)N([C@H]3C[C@@H](N5CCCCC5)C3)C(=O)C43CCN(C(=O)CN4CCC5(CC4)CN(c4ccc6c(c4)C(=O)N(C4CCC(=O)NC4=O)C6=O)C5)CC3)cc3ncn(C(C)C)c23)cc1C(=O)NC(C)C (stereo partly shown) [Example 22, 5-[(6-{1′-[2-(2-{2-[2,6-dioxopiperidin-3-yl]-1,3-dioxo-2,3-dihydro-1H-isoindol-5-yl}-2,7-diazaspiro[3.5]nonan-7-yl)acetyl]-2-oxo-1-[(1s,3s)-3-(piperidin-1-yl)cyclobutyl]-1,2-dihydrospiro[indole-3,4′-piperidin]-6-yl}-3-(propan-2-yl)-3H-imidazo[4,5-c]pyridine-4-yl)amino]-4-fluoro-2-methyl-N-(propan-2-yl)benzamide] | – |
| 45 to 65 | Cc1cc(F)c(Nc2nc(-c3ccc4c(c3)N([C@H]3C[C@@H](N5CCCCC5)C3)C(=O)C43CCN(C(=O)[C@@H]4CCN(C(=O)N5CCC(Nc6cccc7c6C(=O)N(C6CCC(=O)NC6=O)C7=O)CC5)C4)CC3)cc3ncn(C(C)C)c23)cc1C(=O)NC(C)C (stereo partly drawn) [Example 69, 5-[(6-{1′-[(3R)-1-[4-({2-[2,6-dioxopiperidin-3-yl]-1,3-dioxo-2,3-dihydro-1H-isoindol-4-yl}amino)piperidine-1-carbonyl]pyrrolidine-3-carbonyl]-2-oxo-1-[(1S,3s)-3-(piperidin-1-yl)cyclobutyl]-1,2-dihydrospiro[indole-3,4′-piperidin]-6-yl}-3-(propan-2-yl)-3H-imidazo[4,5-c]pyridin-4-yl)amino]-4-fluoro-2-methyl-N-(propan-2-yl)benzamide] | – |
| 45 to 65 | Cc1cc(F)c(Nc2nc(-c3ccc4c(c3)N([C@H]3C[C@@H](N5CCCCC5)C3)C(=O)C43CCN(C(=O)CN4CCN(c5ccc(CC(=O)NCCNc6cccc7c6C(=O)N(C6CCC(=O)NC6=O)C7=O)cc5)CC4)CC3)cc3ncn(C(C)C)c23)cc1C(=O)NC(C)C (stereo partly shown) [Example 44, 5-({6-[1′-(2-{4-[4-({[2-({2-[2,6-dioxopiperidin-3-yl]-1,3-dioxo-2,3-dihydro-1H-isoindol-4-yl}amino)ethyl]carbamoyl}methyl)phenyl]piperazin-1-yl}acetyl)-2-oxo-1-[(1s,3s)-3-(piperidin-1-yl)cyclobutyl]-1,2-dihydrospiro[indole-3,4′-piperidin]-6-yl]-3-(propan-2-yl)-3H-imidazo[4,5-c]pyridin-4-yl}amino)-4-fluoro-2-methyl-N-(propan-2-yl)benzamide] | – |
| < 45 | Cc1cc(F)c(Nc2nc(-c3ccc4c(c3)N([C@H]3C[C@@H](N5CCCCC5)C3)C(=O)C43CCN(C(=O)c4ccc(C(=O)N5CCC(c6cccc7c6C(=O)N([C@H]6CCC(=O)NC6=O)C7=O)CC5)cc4)CC3)cc3ncn(C(C)C)c23)cc1C(=O)NC(C)C [Example 75, 5-[(6-{1′-[4-(4-{2-[2,6-dioxopiperidin-3-yl]-1,3-dioxo-2,3-dihydro-1H-isoindol-4-yl}piperidine-1-carbonyl)benzoyl]-2-oxo-1-[(1s,3s)-3-(piperidin-1-yl)cyclobutyl]-1,2-dihydrospiro[indole-3,4′-piperidin]-6-yl}-3-(propan-2-yl)-3H-imidazo[4,5-c]pyridin-4-yl)amino]-4-fluoro-2-methyl-N-(propan-2-yl)benzamide] | – |
